Earlier results on one compound are cited in patent US5175181A, “Imidazolyl/imidazolylalkyl-N-terminal amino hydroxy” (G. D. Searle & Co., priority 1991, dated 1992).

In data set [1] the test system is aspartyl proteases such as pepsin, cathepsin D and renin. As to conditions: Umezawa et al, J. Antibiot. 1970.
Data set [2] deals with hog renin. As to conditions: after injection of hog renin into nephrectomized rats; Gross et al, Science 1971.

The structures appear in SMILES notation. Square brackets hold non-standard residues; d marks the D form. Peptide text beside a SMILES is read from it. * marks the point of attachment. Sta = CC(C)C[C@H](N)[C@@H](O)CC(=O)O; Isovaleryl = CC(C)CC(=O)*

`CC(C)CC(=O)N[C@H](C(=O)N[C@H](C(=O)N[C@@H](CC(C)C)[C@@H](O)CC(=O)N[C@@H](C)C(=O)N[C@@H](CC(C)C)[C@@H](O)CC(=O)O)C(C)C)C(C)C` [pepstatin] (Isovaleryl-VV[Sta]A[Sta]-OH): the “inhibition of aspartyl proteases” value in data set [1] is “inhibitor of aspartyl proteases”. Moreover, the “blood pressure in vivo” value in data set [2] is “reduce blood pressure”.
